Read-outs that look alike come from different tables or passages of the source.
System: Boophilus microplus
Test: In vitro immersion of engorged female ticks in (S)-methoprene: egg laying, egg weight, hatching
Conditions: for Eggs Viable / Eggs Weight / Number of Ticks Laying Eggs (Day 14): 10 ticks treated; for Eggs Hatch (%): eggs incubated another 4 weeks; for Total Egg Mass / Total Viable Egg Mass / Total Number of Ticks Laying Eggs: both replicates; for Total Number of Ticks Laying Eggs: 20 ticks treated; for Percent Reduction in Egg Mass per Tick / Percent Reduction in Number of Ticks Laying Eggs / Percent Reduction in Total Egg Mass / inhibition at 100 ppm / inhibition at 1000 ppm / inhibition at 10000 ppm / inhibition at 100000 ppm: vs 0 ppm; for inhibition at 100 ppm / inhibition at 1000 ppm / inhibition at 10000 ppm / inhibition at 100000 ppm: Rhipicephalus microplus
Source text: Engorged female ticks were separated into groups of 10, weighed and placed in small containers. Group assignments were adjusted so that the total weight of ticks in each group was similar. Each container of 10 ticks was then randomly assigned to one of the five treatment groups, with two replicates per group. Each replicate of ten female ticks each was then immersed in a solution of (S)-methoprene at a concentration of 0, 100, 1000, 10000 and 100000 ppm of (S)-methoprene diluted in acetone:water (40:60 vN). The ticks were maintained immersed in a treatment for 2 minutes.
After exposure, ticks were removed and dried in a pad prepared with paper towels. Each group was then placed into a clean container identified with the treatment group and incubated for 2 weeks at approximately 27° Celsius and 60% or higher relative humidity to determine the proportion of egg laying females. Eggs laid were weighed and incubated for another 4-week period for hatching observation.

COC(C)(C)CCC[C@H](C)C/C=C/C(C)=C/C(=O)OC(C)C [(S)-methoprene]
Egg Mass per Tick (100 ppm): 0.173 g | Viable Egg Mass per Tick (100 ppm): 0.173 g | Eggs Viable (100 ppm, Replicate A): 1.38 g | Eggs Weight (100 ppm, Replicate A): 1.38 g | Number of Ticks Laying Eggs (Day 14) (100 ppm, Replicate A): 9 | Eggs Hatch (%) (100 ppm, Replicate A): 100% | Eggs Viable (100 ppm, Replicate B): 1.39 g | Eggs Weight (100 ppm, Replicate B): 1.39 g | Number of Ticks Laying Eggs (Day 14) (100 ppm, Replicate B): 7 | Eggs Hatch (%) (100 ppm, Replicate B): 100% | Total Egg Mass (100 ppm): 2.77 g | Total Viable Egg Mass (100 ppm): 2.77 g | Total Number of Ticks Laying Eggs (100 ppm): 16 | Percent Reduction in Egg Mass per Tick (100 ppm): 1% | Percent Reduction in Number of Ticks Laying Eggs (100 ppm): 20% | Percent Reduction in Total Egg Mass (100 ppm): 21% | Egg Mass per Tick (1,000 ppm): 0.152 g | Viable Egg Mass per Tick (1,000 ppm): 0.022 g | Eggs Viable (1,000 ppm, Replicate A): 0.09 g | Eggs Weight (1,000 ppm, Replicate A): 0.47 g | Number of Ticks Laying Eggs (Day 14) (1,000 ppm, Replicate A): 3 | Eggs Hatch (%) (1,000 ppm, Replicate A): 20% | Eggs Viable (1,000 ppm, Replicate B): 0.04 g | Eggs Weight (1,000 ppm, Replicate B): 0.44 g | Number of Ticks Laying Eggs (Day 14) (1,000 ppm, Replicate B): 3 | Eggs Hatch (%) (1,000 ppm, Replicate B): 10% | Total Egg Mass (1,000 ppm): 0.91 g | Total Viable Egg Mass (1,000 ppm): 0.13 g | Total Number of Ticks Laying Eggs (1,000 ppm): 6 | Percent Reduction in Egg Mass per Tick (1,000 ppm): 13% | Percent Reduction in Number of Ticks Laying Eggs (1,000 ppm): 70% | Percent Reduction in Total Egg Mass (1,000 ppm): 74% | Egg Mass per Tick (10,000 ppm): 0.134 g | Viable Egg Mass per Tick (10,000 ppm): 0 g | Eggs Viable (10,000 ppm, Replicate A): 0 g | Eggs Weight (10,000 ppm, Replicate A): 1.22 g | Number of Ticks Laying Eggs (Day 14) (10,000 ppm, Replicate A): 9 | Eggs Hatch (%) (10,000 ppm, Replicate A): 0% | Eggs Viable (10,000 ppm, Replicate B): 0 g | Eggs Weight (10,000 ppm, Replicate B): 0.92 g | Number of Ticks Laying Eggs (Day 14) (10,000 ppm, Replicate B): 7 | Eggs Hatch (%) (10,000 ppm, Replicate B): 0% | Total Egg Mass (10,000 ppm): 2.14 g | Total Viable Egg Mass (10,000 ppm): 0 g | Total Number of Ticks Laying Eggs (10,000 ppm): 16 | Percent Reduction in Egg Mass per Tick (10,000 ppm): 23% | Percent Reduction in Number of Ticks Laying Eggs (10,000 ppm): 20% | Percent Reduction in Total Egg Mass (10,000 ppm): 39% | Egg Mass per Tick (100,000 ppm): 0.125 g | Viable Egg Mass per Tick (100,000 ppm): 0 g | Eggs Viable (100,000 ppm, Replicate A): 0 g | Eggs Weight (100,000 ppm, Replicate A): 0.58 g | Number of Ticks Laying Eggs (Day 14) (100,000 ppm, Replicate A): 4 | Eggs Hatch (%) (100,000 ppm, Replicate A): 0% | Eggs Viable (100,000 ppm, Replicate B): 0 g | Eggs Weight (100,000 ppm, Replicate B): 0.42 g | Number of Ticks Laying Eggs (Day 14) (100,000 ppm, Replicate B): 4 | Eggs Hatch (%) (100,000 ppm, Replicate B): 0% | Total Egg Mass (100,000 ppm): 1.00 g | Total Viable Egg Mass (100,000 ppm): 0 g | Total Number of Ticks Laying Eggs (100,000 ppm): 8 | Percent Reduction in Egg Mass per Tick (100,000 ppm): 29% | Percent Reduction in Number of Ticks Laying Eggs (100,000 ppm): 60% | Percent Reduction in Total Egg Mass (100,000 ppm): 71% | inhibition at 100 ppm (100 ppm, read-out: Percent Reduction in Viable Egg Mass): 21% | inhibition at 100 ppm (100 ppm, read-out: Percent Reduction in Viable Egg Mass per Tick): 1% | inhibition at 1000 ppm (1,000 ppm, read-out: Percent Reduction in Viable Egg Mass): 96% | inhibition at 1000 ppm (1,000 ppm, read-out: Percent Reduction in Viable Egg Mass per Tick): 87% | inhibition at 10000 ppm (10,000 ppm, read-out: Percent Reduction in Viable Egg Mass): 100% | inhibition at 10000 ppm (10,000 ppm, read-out: Percent Reduction in Viable Egg Mass per Tick): 100% | inhibition at 100000 ppm (100,000 ppm, read-out: Percent Reduction in Viable Egg Mass): 100% | inhibition at 100000 ppm (100,000 ppm, read-out: Percent Reduction in Viable Egg Mass per Tick): 100% | egg laying (all treatment groups (100 to 100000 ppm)): Eggs were laid | egg viability (concentrations at and above 10,000 ppm): completely inhibited | egg hatching (concentrations of 10,000 ppm and above): did not hatch
